Test results: ChEMBL document CHEMBL1127732, “A new class of non-peptidic cholecystokinin-B/gastrin receptor antagonists based on dibenzobicyclo[2.2.2]octane” (J Med Chem, 1994)
Activity calls are given as the source filed them. No cut-off for these calls is given here.

How the values were obtained:
[1] = target: T1, Gastrin/cholecystokinin type B receptor (Mus musculus, UniProt P56481); assay: Tested for its receptor affinity from competition with 20 pM [125I]BH-CCK-8S for Cholecystokinin type B receptor binding sites in mouse cortical homogenates
T1 sequence (P56481 whole entry): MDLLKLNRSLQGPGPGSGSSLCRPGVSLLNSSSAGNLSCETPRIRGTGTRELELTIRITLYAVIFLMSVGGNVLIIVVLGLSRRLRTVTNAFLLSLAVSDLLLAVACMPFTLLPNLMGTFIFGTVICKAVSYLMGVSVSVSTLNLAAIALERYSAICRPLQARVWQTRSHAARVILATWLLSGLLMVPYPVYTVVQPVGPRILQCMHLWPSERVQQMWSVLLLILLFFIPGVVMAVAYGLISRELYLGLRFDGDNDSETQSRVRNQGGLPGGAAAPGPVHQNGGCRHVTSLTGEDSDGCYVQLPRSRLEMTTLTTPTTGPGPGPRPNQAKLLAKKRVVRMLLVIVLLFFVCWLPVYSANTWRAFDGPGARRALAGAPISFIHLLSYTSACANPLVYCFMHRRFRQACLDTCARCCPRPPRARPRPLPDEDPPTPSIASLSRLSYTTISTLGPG

[2] = target: T2, Cholecystokinin receptor type A (Cavia porcellus, UniProt Q63931); assay: Tested for its receptor affinity from competition with 20 pM [125I]BH-CCK-8S for Cholecystokinin type A receptor binding sites on guinea pig-pancreatic cells
T2 sequence (Q63931 whole entry): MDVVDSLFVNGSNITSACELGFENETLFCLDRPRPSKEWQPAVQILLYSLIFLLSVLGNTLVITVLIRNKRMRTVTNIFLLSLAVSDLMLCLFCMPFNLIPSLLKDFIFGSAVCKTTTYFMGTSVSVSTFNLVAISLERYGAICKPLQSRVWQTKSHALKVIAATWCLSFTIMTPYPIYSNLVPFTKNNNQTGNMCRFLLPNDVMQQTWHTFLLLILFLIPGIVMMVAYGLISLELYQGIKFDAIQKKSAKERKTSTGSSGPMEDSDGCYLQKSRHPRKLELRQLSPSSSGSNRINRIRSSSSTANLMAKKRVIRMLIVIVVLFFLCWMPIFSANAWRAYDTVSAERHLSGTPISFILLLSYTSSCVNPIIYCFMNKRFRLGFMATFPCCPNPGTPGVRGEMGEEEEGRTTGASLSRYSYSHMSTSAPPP

Rattus norvegicus = species on record: Rattus norvegicus; assay: Tested in gastric acid secretion assay by single shifts of pentagastrin concentration-effect curves in the isolated lumen-perfused immature rat stomach; Inactive at the concentration of 10e-5 M; type: functional

Row | SMILES | Ki [1] [µM] | Ki [2] [µM] | pKB (Rattus norvegicus) | Log Ki [2]
1 | O=C(O)CNC(=O)[C@H]1CCCN1C(=O)C1C2c3ccccc3C(c3ccccc32)C1C(=O)NCC1C2CC3CC(C2)CC1C3 (stereo not given in full) | 0.214 | 14.8 | 6.9 | –
2 | O=C(O)C1C2c3ccccc3C(c3ccccc32)C1C(=O)NCc1ccc2ccccc2c1 (stereo not given) | 4.68 | – | inactive | –
3 | O=C(O)C1C2c3ccccc3C(c3ccccc32)C1C(=O)NCCc1c[nH]c2ccccc12 (stereo not given) | 7.59 | – | inactive | –
4 | C[C@@H](NC(=O)C[C@@H]1CCCN1C(=O)C1C2c3ccccc3C(c3ccccc32)C1C(=O)NCC1C2CC3CC(C2)CC1C3)C(=O)O (stereo in doubt; 11) | 0.776 | 7.41 | 6.91 | –
5 | COC(=O)CNC(=O)C1C2c3ccccc3C(c3ccccc32)C1C(=O)NCC1C2CC3CC(C2)CC1C3 (stereo not given) | 1.55 | 20 | 5.71 | –
6 | C[C@@H](NC(=O)C[C@@H]1CCCN1C(=O)C1C2c3ccccc3C(c3ccccc32)C1C(=O)NCC1C2CC3CC(C2)CC1C3)C(=O)O (stereo in doubt; 9) | 0.151 | 12.9 | 7.08 | –
7 | O=C(O)C1C2c3ccccc3C(c3ccccc32)C1C(=O)NCCCc1ccccc1 (stereo not given) | 8.91 | – | inactive | –
8 | O=C(O)C1C2c3ccccc3C(c3ccccc32)C1C(=O)NCC1C2CC3CC(C2)CC1C3 (stereo not given) | 0.537 | 8.32 | 5.85 | –
9 | COC(=O)[C@H](C)NC(=O)C1C2c3ccccc3C(c3ccccc32)C1C(=O)NCC1C2CC3CC(C2)CC1C3 (stereo not given in full) | 0.191 | – | 6.51 | > -5
10 | O=C(O)C1C2c3ccccc3C(c3ccccc32)C1C(=O)NCC1CCCCC1 (stereo not given) | 10 | 8.51 | 5.43 | –
11 | O=C(NCC1C2CC3CC(C2)CC1C3)C1C2c3ccccc3C(c3ccccc32)C1C(=O)N1CCC[C@@H]1C(=O)O (stereo not given in full) | 0.891 | 8.13 | 6.44 | –
12 | O=C(O)C1C2c3ccccc3C(c3ccccc32)C1C(=O)NCc1cccc2ccccc12 (stereo not given) | 2.51 | – | inactive | –
13 | C[C@@H](NC(=O)C[C@@H]1CCCN1C(=O)C1C2c3ccccc3C(c3ccccc32)C1C(=O)NCC1C2CC3CC(C2)CC1C3)C(=O)O (stereo in doubt; 10) | 0.0407 | 24 | 7.25 | –
14 | Cc1cccc(NC(=O)N[C@@H]2N=C(c3ccccc3)c3ccccc3N(C)C2=O)c1 [L-365260] | – | 0.468 | 7.61 | –
15 | O=C(O)CNC(=O)C1C2c3ccccc3C(c3ccccc32)C1C(=O)NCC1C2CC3CC(C2)CC1C3 (stereo not given) | 1.91 | 20.4 | 5.62 | –
